Measured values reported in patent US20160340659A1, “ACTIN BINDING PEPTIDES AND COMPOSITIONS COMPRISING SAME FOR INHIBITING ANGIOGENESIS AND TREATING MEDICAL CONDITIONS ASSOCIATED WITH SAME” (YISSUM RESEARCH AND DEVELOPMENT COMPANY OF THE HEBREW …, priority 2014, published 2016).
Marks after values point to notes of the source that are not given here. Where no end group is shown, it is not given here.

Columns and labels:
[1] = biological target: actin (Oryctolagus cuniculus, UniProt P68135); test: Surface plasmon resonance (BIAcore) of actin binding; settings: actin on CM5 chip, 25° C.
Experimental: SPR was performed on a BIAcore 3000 instrument (BIAcore, Uppsala, Sweden). Actin was diluted in 100 mM CH3COONa pH 4.6 to a final concentration of 20 μg/ml (200 μl total) resulting in ˜1 ng immobilized actin on a CM5 BIAcore sensor chip (GE Healthcare Bio-Sciences AB) using the standard BIAcore amine coupling chemistry protocol. The CM5 chip allows four separate flow cells to be operated in the BIAcore 3000 instrument used in these experiments. Coupling is achieved by activating the surface of the sensor chips with equal volumes of 50 mM N-hydroxysuccimide (NHS)/200 mM Nethyl-N-(3-[…])-carboiimide (EDC) (BIAcore, AB, Uppsala, Sweden) to form activated carboxyl groups. An actin solution […] was run over the chip for 5 min at a rate of 10 μl/min, allowing the amine groups on the protein to react with the activated esters. In the final stage of immobilization, the surface was blocked by 1M ethanol amine, pH 8.0. The binding assay was performed by injecting the hRNASET2, trT2-49, trT2-49m or peptides solutions in running buffer (HBS—10 mM Hepes, 150 mM Sodium Chloride, 3 mM EDTA, 0.005% Polysorbate 20) at 5 different concentrations at a flow rate of 10 μl/min at 25° C. Injections were performed simultaneously over all four channels and blank surface (a plain dextran matrix, channel 1) was used as control. The net signal was obtained by subtracting the blank signal from the signal of the immobilized surface. The association phase for protein or peptides binding to actin was followed for 4 min, and dissociation phases were monitored for 3 min. Surface regeneration between consecutive binding cycles included a 1 min injection of 1 mM NaOH. The response was monitored as a function of time (sensorgram) at 25° C. Multi-concentration data were globally fit using BIA evaluation 3.2 software.
The strength of a two molecule interaction is characterized by the equilibrium dissociation (binding) constant KD=[P][L]/[PL], where [P] is the concentration of free protein (or peptide), [L] the concentration of ligand and [PL] the concentration of the complex. […]

[2] = system: chick Chorio-Allantoic Membrane (CAM); test: Ex ovo CAM angiogenesis assay; assay type: in vivo, chicken; settings: 3 μg on paper disk daily for four days from day 8; compared to PBS control
Experimental: In this assay, in-vivo angiogenesis is assessed on live chick embryos grown in petri dishes. Fertilized eggs are cracked into a petri dish after a few (e.g. 3) days incubation at appropriate temperature (e.g. 37° C.) and humidity. In the following days, the embryos developed a vascular network, which can then easily be exposed to any treatment or combination of treatments, for example, via delivery onto absorbent disks placed on/about the developing vascular regions. Angiogenesis is scored by periodically (e.g. 1×/day, 2×/day, 1×/2 days, 1×/4 days, etc) counting the number of blood vessels around the disk.
Fertilized chicken eggs were incubated horizontally at 37° C. and humidity of 60-62% and cracked into Petri dishes at embryonic day 4. Incubation was continued under the same conditions. […] Treatment was given every day for four days, then, the number of blood vessels around the treated disks was counted.

[3] = system: Super metastatic A375SM cells; test: A375SM xenograft tumor model in athymic nude mice; assay type: in vivo, mouse; settings: for Tumor Weight: excised tumors at end
Experimental: Female Hds-athymic nude mice (Harlan, Rehovot, Israel) were housed in laminar flow cabinets under specific pathogen-free conditions. Experiments were performed on mice at 7-8 weeks of age. The Animals were maintained in facilities approved by the Ethics Committee for Animal Experimentation, The Israeli Ministry of Health.
Subcutaneous tumors were produced by injecting 2.5×10^5 Super metastatic A375SM cells (single-cell suspensions, >95% viability by a trypan blue exclusion test) in 0.2 ml of Hanks' buffered salt solution into the left flank of each mouse. Tumor growth was recorded three times weekly with a caliper and calculated as a×b^2/2 cm^3 (a, long diameter; b, short diameter). Treatments commenced when tumors arrived to about 100 mm^3 volumes, as follows (iv=intravenous; it=intra-tumor, direct injection, q3×6=three times per week for six weeks, […]):
Each group comprised 10 mice. At the end of experiment, tumors were excised, weighed, and prepared for histopathological examination.
Sections from the excised tumors were examined for athological changes, using Hematoxylin-Eosin staining (nuclei stain blue) and FragEL™ TdT DNA Fragmentation Detection stain (Calbiochem, EMD Millipore, MA) for visualizing apoptotic nuclei.

[4] = 2.5 mg/kg intratumoral, three times per week
[5] = 2.5 mg/kg iv, three times per week
[6] = 5 mg/kg iv, three times per week

## KKYFGRSLELYRELDLNSVLLKLGIK [SEQ ID NO: 57, 26-amino acid peptide representing amino acids 108-133 of RNASET2]
[1]
  Ka × 10^3: 3.32 ×10^3 1/Ms
[2]
  inhibition of angiogenesis (number of blood vessels around disk): effective in inhibiting angiogenesis
[3]; 2.5 mg/kg intra-tumor, three times per week, vs PBS control
  tumor volume (tumor growth): Increasing inhibition of tumor growth
[3]; [4]
  tumor apoptosis (FragEL stain of tumor sections): abundant apoptosis
  tumor vascular structures (H&E sections): tumor cells can be seen accumulating towards the blood vessels
[3]; 2.5 mg/kg iv, daily
  tumor apoptosis (FragEL stain of tumor sections): heightened apoptosis
  tumor vascular structures (H&E sections): significant disruption of tumor histology and vascular structures
[3]; 2.5 mg/kg iv, daily for six weeks, vs PBS control
  tumor volume (tumor development): increased the rate of tumor development
[3]; [5]
  tumor apoptosis (FragEL stain of tumor sections): abundant apoptotic cells
  tumor vascular structures (H&E sections): visible disruption of the endothelial structure
[3]; 2.5 mg/kg iv, three times per week for six weeks, vs PBS control
  tumor volume (tumor development): trend of increasing inhibition of tumor development
[3]; 2.5 mg/kg q7x6 iv
  Tumor Weight: 3469 ± 648^a
[3]; [6]
  tumor apoptosis (FragEL stain of tumor sections): an increase in apoptotic rate
  tumor vascular structures (H&E sections): only partial disruption of the endothelial cell structures
[3]; 5 mg/kg iv, three times per week, vs PBS control
  tumor growth: no visible significant effect on tumor growth
[3]; 5 mg/kg q3x6 iv
  Tumor Weight: 1798 ± 385^b
[3]; 7.5 mg/kg iv, three times per week
  tumor apoptosis (FragEL stain of tumor sections): an increase in apoptotic rate
[3]; 7.5 mg/kg iv, three times per week, relative to PBS controls
  tumor vascular structures (H&E sections): A small, if any effect
[3]; 7.5 mg/kg iv, three times per week, vs PBS control
  tumor growth: no visible significant effect on tumor growth
[3]; 7.5 mg/kg q3x6 iv
  Tumor Weight: 1471 ± 418^b

## ALNSQKKYFGRSLELYRELDLNSVLLKLGIKPSINYYQVADFKDALARVYGVIPKIQ [SEQ ID NO: 60]
[1]; read-out: Ka × 10^3
  kon: 1060 M⁻¹ s⁻¹
[2]
  inhibition of angiogenesis (number of blood vessels around disk): effective in inhibiting angiogenesis
